Test results as given in ChEMBL document CHEMBL1142802, “L-arginine analogs as alternate substrates for nitric oxide synthase” (Bioorg Med Chem Lett, 2005).

Biological target: Nitric oxide synthase, inducible (Homo sapiens, UniProt P35228)
Experiment: Binding affinity towards inducible nitric oxide synthase

Sequence of Nitric oxide synthase, inducible (P35228 whole entry): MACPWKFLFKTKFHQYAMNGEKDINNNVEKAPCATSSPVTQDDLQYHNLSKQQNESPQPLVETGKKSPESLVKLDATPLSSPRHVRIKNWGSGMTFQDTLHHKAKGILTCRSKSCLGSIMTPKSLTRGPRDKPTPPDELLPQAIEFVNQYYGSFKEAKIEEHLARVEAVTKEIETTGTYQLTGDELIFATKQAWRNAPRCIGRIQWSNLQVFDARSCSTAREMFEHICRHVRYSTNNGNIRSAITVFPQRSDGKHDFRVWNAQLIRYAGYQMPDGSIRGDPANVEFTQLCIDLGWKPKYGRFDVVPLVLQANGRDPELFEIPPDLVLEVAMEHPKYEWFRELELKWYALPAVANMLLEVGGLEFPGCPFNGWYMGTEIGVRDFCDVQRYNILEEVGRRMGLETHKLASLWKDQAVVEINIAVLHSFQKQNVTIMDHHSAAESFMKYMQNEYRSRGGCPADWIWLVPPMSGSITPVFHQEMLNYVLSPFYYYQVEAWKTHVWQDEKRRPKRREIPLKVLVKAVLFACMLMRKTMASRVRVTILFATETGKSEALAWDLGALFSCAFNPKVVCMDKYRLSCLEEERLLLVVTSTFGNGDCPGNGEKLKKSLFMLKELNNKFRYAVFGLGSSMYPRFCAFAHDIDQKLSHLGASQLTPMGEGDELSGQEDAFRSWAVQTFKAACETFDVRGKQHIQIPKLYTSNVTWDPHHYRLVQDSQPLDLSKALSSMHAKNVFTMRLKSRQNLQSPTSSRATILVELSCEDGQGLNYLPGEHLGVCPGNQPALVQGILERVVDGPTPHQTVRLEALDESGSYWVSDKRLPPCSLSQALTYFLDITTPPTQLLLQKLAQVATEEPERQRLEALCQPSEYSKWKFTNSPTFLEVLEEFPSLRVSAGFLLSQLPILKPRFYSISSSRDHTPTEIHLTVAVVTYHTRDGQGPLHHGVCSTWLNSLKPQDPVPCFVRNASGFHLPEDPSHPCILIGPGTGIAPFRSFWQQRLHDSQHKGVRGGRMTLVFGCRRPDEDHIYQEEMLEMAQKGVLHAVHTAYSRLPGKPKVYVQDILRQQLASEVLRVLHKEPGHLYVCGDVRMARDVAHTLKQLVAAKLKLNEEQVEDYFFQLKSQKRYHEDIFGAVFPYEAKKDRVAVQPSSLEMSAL

SMILES	Ki
N=C(N)CCCCC(N)C(=O)O (configuration not stated)	> 3000 µM
N=C(N)NOCC[C@H](N)C(=O)O [CANAVANINE]	220 µM
